# Molecular target: GLP-1R (Homo sapiens, UniProt P43220)
# Assay: GLP-1R agonist cAMP stimulation assay (HTRF cAMP)
# Type: cell-based
# Conditions: HEK293 cell line expressing GLP-1 target; HTRF cAMP agonist mode, 30 min at RT
# Summary of the method: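 Read-out was HTRF (665/615 ratio), interpolated onto a cAMP standard curve and normalised to DMSO (0%) and maximal GLP-1(7-37) reference (100%) wells. Assay: GLP-1R cells at 1.0×E5/mL incubated with compound dilution series (3-fold, 10 points) for 30 min at room temperature before 60 min detection.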
# GLP-1R, sequence (P43220 24-463): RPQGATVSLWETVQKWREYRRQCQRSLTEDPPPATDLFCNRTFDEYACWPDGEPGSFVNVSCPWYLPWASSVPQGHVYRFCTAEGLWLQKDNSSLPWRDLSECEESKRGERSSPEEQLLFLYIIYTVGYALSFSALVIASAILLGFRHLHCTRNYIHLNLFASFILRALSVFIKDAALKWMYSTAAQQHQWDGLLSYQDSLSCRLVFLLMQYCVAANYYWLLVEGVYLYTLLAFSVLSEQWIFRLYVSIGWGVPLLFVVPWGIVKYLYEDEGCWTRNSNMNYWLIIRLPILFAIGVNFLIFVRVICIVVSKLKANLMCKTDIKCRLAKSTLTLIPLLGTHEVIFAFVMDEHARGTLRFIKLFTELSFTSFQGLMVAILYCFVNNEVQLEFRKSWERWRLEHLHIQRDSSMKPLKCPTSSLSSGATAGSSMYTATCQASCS
row,SMILES,EC50
1,O=C(Nc1ccc2c(c1)nc(CN1CC=C(c3cccc(OCc4ccc(Cl)cc4F)n3)CC1)n2C[C@@H]1CCO1)c1ccc2[nH]nc(F)c2c1 [Compound 202],2.21 nM
2,O=C(Nc1ccc2c(c1)nc(C1CC13CCN(c1cccc(OCc4ccc(Cl)cc4F)n1)CC3)n2C[C@@H]1CCO1)c1cc(F)c2c(c1)C1(CC1)C(=O)N2 (some centres unmarked) [Compound 254],1.92 nM
3,O=C(Nc1cc(C(F)(F)F)c2[nH]nc(C3CC3)c2c1)c1ccc2c(c1)nc(CN1CC=C(c3cccc(OCc4ccc(Cl)cc4F)n3)CC1)n2C[C@@H]1CCO1 [Compound 163],0.99 nM
4,COCCn1c(CN2CCC(c3cccc(OCc4ccc(Cl)cc4F)n3)CC2)nc2cc(C(=O)NCCCn3ccnc3)ccc21 [Compound 16],146 nM
5,CC1(c2ccc(Cl)cc2F)Oc2cccc(C3CCN(Cc4nc5cc(C(=O)Nc6ccc7[nH]nc(C(F)(F)F)c7c6)ccc5n4CC4CCO4)CC3)c2O1 (centres unmarked) [Compound 333],2.19 nM
6,Cc1n[nH]c2ncc(NC(=O)c3ccc4c(c3)nc(CN3CCC(c5cccc(OCc6ccc(Cl)cc6F)n5)CC3)n4C[C@@H]3CCO3)cc12 [Compound 79],76.5 nM
7,Cc1cc(NC(=O)c2ccc3c(c2)nc(CN2CC=C(c4cccc5c4OC(C)(c4ccc(Cl)cc4F)O5)CC2)n3C[C@@H]2CCO2)cc2c1NC(=O)C21CC1 (some centres unmarked) [Compound 301],0.18 nM
8,O=C(Nc1ncc2[nH]cnc2n1)c1ccc2c(c1)nc(CN1CC=C(c3cccc(OCc4ccc(Cl)cc4F)n3)CC1)n2C[C@@H]1CCO1 [Compound 144],23.4 nM
9,Cc1cc(NC(=O)c2ccc3c(c2)nc(CN2CC=C(c4cccc(OCc5ccc(Cl)cc5F)n4)CC2)n3C[C@@H]2CCO2)cc2c(C3CC3)n[nH]c12 [Compound 164],1.68 nM
10,CC1(C)C[C@@H](C(=O)O)N(C(=O)CNC(=O)c2ccc3c(c2)nc(CN2CCC(c4cccc(OCc5ccc(Cl)cc5F)n4)CC2)n3C[C@@H]2CCO2)C1 [Compound 58],4.35 nM
11,Fc1cc(Cl)ccc1COc1cccc(C2=CCN(Cc3nc4cc(-c5nc(-c6c[nH]c(C(F)(F)F)n6)co5)ccc4n3C[C@@H]3CCO3)CC2)n1 [Compound 399],> 10000 nM
12,O=C(Nc1ccn2ncc(Cl)c2c1)c1ccc2c(c1)nc(CN1CCC(c3cccc(OCc4ccc(Cl)cc4F)n3)CC1)n2CC1CCO1 (centres unmarked) [Compound 97],140 nM
13,O=C(Nc1ccc2[nH]c(=O)[nH]c2c1)c1ccc2nc(CN3CC=C(c4cccc(OCc5ccc(Cl)cc5F)n4)CC3)n(C[C@@H]3CCO3)c2c1 [Compound 270],1.02 nM
14,"COCCn1c(Cc2ccc(-c3cccc(OCc4ccc(C#N)cc4F)n3)cc2)nc2cc(C(=O)NCCc3ccc(O)cc3)ccc21 [Compound 1, 2-(4-(6-((4-cyano-2-fluorobenzyl)oxy)pyridin-2-yl)benzyl)-N-(4-hydroxyphenethyl)-1-(2-methoxyethyl)-1H-benzo[d]imidazole-5-carboxamide]",4150 nM
15,Cc1n[nH]c2ncc(NC(=O)c3ccc4c(c3)nc(CN3CC=C(c5cccc(OCc6ccc(Cl)cc6F)n5)CC3)n4C[C@@H]3CCO3)cc12 [Compound 189],3.54 nM
16,Cc1cc(NC(=O)c2ccc3c(c2)nc(CN2CCC(c4cccc(OCc5cc(F)c(C#N)s5)n4)CC2)n3C[C@@H]2CCO2)cc2c(C(F)(F)F)n[nH]c12 [Compound 377],3.41 nM
17,CC1(c2ccc(Cl)cc2F)Oc2cccc(C3=CCN(Cc4nc5cc(C(=O)Nc6ccc7[nH]nc(C8CC8)c7c6)ccc5n4CC4CCO4)CC3)c2O1 (centres unmarked) [Compound 330],0.88 nM
18,Fc1cc(Cl)ccc1COc1cccc(C2=CCN(Cc3nc4ccc(CNc5cc(F)c6[nH]ncc6c5)cc4n3C[C@@H]3CCO3)CC2)n1 [Compound 268],3.64 nM
19,Cc1n[nH]c2c(Cl)cc(NC(=O)c3ccc4c(c3)nc(CN3CCC(c5cccc6c5OC(C)(c5ccc(Cl)cc5F)O6)CC3)n4CC3CCO3)cc12 (centres unmarked) [Compound 338],1.32 nM
20,Cc1nc2ccc(NC(=O)c3ccc4c(c3)nc(CN3CCC(c5cccc(OCc6ccc(Cl)cc6F)n5)CC3)n4C[C@@H]3CCO3)cc2s1 [Compound 95],62 nM
21,O=C(NCC(=O)N1CCC[C@H]1C(=O)O)c1ccc2c(c1)nc(CN1CCC(c3cccc(OCc4ccc(Cl)cc4F)n3)CC1)n2C[C@@H]1CCO1 [Compound 60],22.3 nM
22,Cc1cc2c(C#N)ccc(COc3cccc(C4=CCN(Cc5nc6cc(C(=O)Nc7cc(F)c8[nH]nc(C)c8c7)ccc6n5C[C@@H]5CCO5)CC4)n3)c2o1 [Compound 353],0.44 nM
23,Cc1n[nH]c2cc(NC(=O)c3ccc4c(c3)nc(CN3CCC(c5cccc(OCc6ccc(Cl)cc6F)n5)CC3)n4C[C@@H]3CCO3)ccc12 [Compound 94],372 nM
24,N#Cc1ccc(COc2cccc(C3CCN(Cc4nc5cc(C(=O)Nc6cc(F)c7c(c6)C6(CC6)C(=O)N7)ccc5n4C[C@@H]4CCO4)CC3)n2)c(F)c1 [Compound 125],0.55 nM
25,Cc1n[nH]c2c(C(F)(F)F)cc(C(=O)Nc3ccc4c(c3)nc(CN3CC=C(c5cccc(OCc6ccc(Cl)cc6F)n5)CC3)n4C[C@@H]3CCO3)cc12 [Compound 210],0.39 nM

row,SMILES,EC50
1,Cc1n[nH]c2c(F)cc(C(=O)Nc3ccc4c(c3)nc(CN3CCC(c5cccc(OCc6cc(F)c(C#N)s6)n5)CC3)n4C[C@@H]3CCO3)cc12 [Compound 374],0.55 nM
2,CC(=O)c1n[nH]c2ccc(C(=O)Nc3ccc4c(c3)nc(CN3CC=C(c5cccc(OCc6ccc(Cl)cc6F)n5)CC3)n4C[C@@H]3CCO3)cc12 [Compound 395],10.3 nM
3,O=C(Nc1ccc2[nH]nnc2c1)c1ccc2c(c1)nc(CN1CCC(c3cccc(OCc4ccc(Cl)cc4F)n3)CC1)n2C[C@@H]1CCO1 [Compound 193],0.21 nM
4,Cc1cc(C(=O)Nc2ccc3c(c2)nc(CN2CC=C(c4cccc5c4OC(C)(c4ccc(Cl)cc4F)O5)CC2)n3C[C@@H]2CCO2)cc2c1NC(=O)C21CC1 (some centres unmarked) [Compound 307],0.21 nM
5,COCCn1c(Cc2ccc(-c3cccc(OCc4ccc(C#N)cc4F)n3)cc2)nc2cc(NC(=O)CCc3ccccc3O)ccc21 [Compound 13],189 nM
6,O=C(Nc1ccn2nccc2c1)c1ccc2c(c1)nc(CN1CCC(c3cccc(OCc4ccc(Cl)cc4F)n3)CC1)n2CC1CCO1 (centres unmarked) [Compound 96],74.3 nM
7,Cc1cc2c(C#N)ccc(COc3cccc(C4CCN(Cc5nc6cc(NC(=O)c7cc(F)c8[nH]nc(C)c8c7)ccc6n5C[C@@H]5CCO5)CC4)n3)c2o1 [Compound 372],0.65 nM
8,C[C@H](NC(=O)c1ccc2c(c1)nc(CN1CC=C(c3cccc(OCc4ccc(Cl)cc4F)n3)CC1)n2C[C@@H]1CCO1)C(=O)N1CC(F)(F)C[C@H]1C(=O)O [Compound 73],0.52 nM
9,O=C(Nc1ccc2c(c1)nc(CN1CC=C(c3cccc(OCc4ccc(Cl)cc4F)n3)CC1)n2C[C@@H]1CCO1)c1cc(C(F)(F)F)c2[nH]ncc2c1 [Compound 212],2.96 nM
10,Cc1n[nH]c2c(C(F)(F)F)cc(NC(=O)c3ccc4c(c3)nc(CN3CCC(c5cccc6c5OC(C)(c5ccc(Cl)cc5F)O6)CC3)n4CC3CCO3)cc12 (centres unmarked) [Compound 331],1.27 nM
11,Cc1cc2c(C#N)ccc(COc3cccc(C4=CCN(Cc5nc6cc(NC(=O)c7ccc8[nH]nc(C(F)(F)F)c8c7)ccc6n5C[C@@H]5CCO5)CC4)n3)c2o1 [Compound 359],1.62 nM
12,Cc1n[nH]c2cc(F)c(NC(=O)c3ccc4c(c3)nc(CN3CCC(c5cccc(OCc6ccc(Cl)cc6F)n5)CC3)n4C[C@@H]3CCO3)cc12 [Compound 123],5.49 nM
13,O=C(Nc1ccc2ncsc2c1)c1ccc2c(c1)nc(CN1CCC(c3cccc(OCc4ccc(Cl)cc4F)n3)CC1)n2C[C@@H]1CCO1 [Compound 98],16.9 nM
14,Cc1n[nH]c2ccc(C(=O)Nc3ccc4c(c3)nc(CN3CC=C(c5cccc6c5OC(C)(c5ccc(Cl)cc5F)O6)CC3)n4CC3CCO3)cc12 (centres unmarked) [Compound 306],0.56 nM
15,Cc1n[nH]c2c(C(F)F)cc(NC(=O)c3ccc4c(c3)nc(CN3CCC(c5cccc(OCc6ccc(Cl)cc6F)n5)CC3)n4C[C@@H]3CCO3)cc12 [Compound 119],0.63 nM
16,O=C(Nc1ccc2[nH]ncc2c1)c1ccc2c(c1)nc(CN1CC=C(c3cccc(OCc4ccc(Cl)cc4F)n3)CC1)n2C[C@@H]1CCO1 [Compound 141],3.29 nM
17,CC(C)c1n[nH]c2ccc(C(=O)Nc3ccc4c(c3)nc(Cc3cc(F)c(-c5cccc6c5OC(C)(c5ccc(C#N)cc5F)O6)cc3F)n4CC3CCO3)cc12 (centres unmarked) [Compound 323],2.73 nM
18,N#Cc1ccc(COc2cccc(C3CCN(Cc4nc5cc(C(=O)Nc6ccc7c(c6)C6(CC6)C(=O)N7)ccc5n4C[C@@H]4CCO4)CC3)n2)c(F)c1 [Compound 128],0.3 nM
19,Cc1n[nH]c2c(F)cc(NC(=O)c3ccc4c(c3)nc(CN3CC=C(c5cccc6c5O[C@@](C)(c5ccc(C#N)cc5F)O6)CC3)n4CC3CCO3)cc12 (some centres unmarked) [Compound 298],0.37 nM
20,Cc1n[nH]c2c(F)cc(C(=O)Nc3ccc4nc(CN5CC=C(c6cccc(OCc7ccc(Cl)cc7F)n6)CC5)n(CC5CCO5)c4c3)cc12 (centres unmarked) [Compound 277],0.76 nM
21,"Cc1n[nH]c2ccc(C(=O)Nc3ccc4c(c3)nc(CN3CC=C(c5cccc(OCc6ccc(Cl)cc6F)n5)CC3)n4C[C@@H]3CCO3)cc12 [Compound 4, (S)—N-(2-((6-((4-chloro-2-fluorobenzyl)oxy)-3′,6′-dihydro-[2,4′-bipyridin]-1′(2′H)-yl)methyl)-1-(oxetan-2-ylmethyl)-1H-benzo[d]imidazol-5-yl)-3-methyl-1H-indazole-5-carboxamide]",0.14 nM
22,N#Cc1ccc(COc2cccc(C3CCN(Cc4nc5cc(C(=O)NCC(=O)N6C[C@@H](O)C[C@H]6C(=O)O)ccc5n4C[C@@H]4CCO4)CC3)n2)c(F)c1 [Compound 56],0.97 nM
23,N#Cc1ccc(COc2cccc(C3CCN(Cc4nc5cc(C(=O)Nc6ccc7[nH]nc(C(F)(F)F)c7c6)ccc5n4C[C@@H]4CCO4)CC3)n2)c(F)c1 [Compound 130],1.34 nM
24,O=C(Nc1ccc2[nH]nc(C(F)(F)F)c2c1)c1ccc2c(c1)nc(CN1CCC(c3cccc(OCc4ccc(Cl)cc4F)n3)CC1)n2C[C@@H]1CCO1 [Compound 111],2.34 nM
25,Cc1n[nH]c2ccc(NC(=O)c3ccc4c(n3)nc(CN3CC=C(c5cccc(OCc6ccc(Cl)cc6F)n5)CC3)n4C[C@@H]3CCO3)cc12 [Compound 136],2.19 nM
